Experimental data from US10684290B2, “LKB1 related diagnostics and treatments of cancer” (Dignity Health, priority 2014, dated 2020).

Columns and labels:
[1] = system: H838-KDLKB1 and H838-LKB1 cells; assay: Flow cytometry of ROS levels (CellROX staining); assay type: cell-based, human; details: CellROX FACS, 12 h; 2DG 10 mM, Tm 1.25 μg/ml, BFA 30 ng/ml; baseline difference 1.4-fold
Experimental: To analyze levels of reactive oxygen species (ROS), 1×10^6 H838-KDLKB1 and H838-LKB1 cells were plated and treated with the indicated drugs. Cells were then stained with 0.5 1M CellRox™ for 30 min at 37° C., collected by trypsinization and washed with PBS. Following fixation with 2% Paraformaldehyde/PBS for 20 min, cells were brought to a final volume of 500 ll in PBS. CellRox™ staining of ROS was assessed using the Accuri C6 Flow Cytometer (BD Biosciences, San Jose, Calif., USA) with the threshold set at 80,000. A total of 30,000 events were collected per sample and ROS staining intensity determined using FCS Express 4 Flow Cytometer software. Background events were gated out using unstained control. Histogram plots were overlaid and histogram subtraction was performed by subtracting the integral of the stained control from the treated sample.

[2] = system: KRas/LKB1^wt and KRas/LKB1^null NSCLC tumors; assay: Murine transgenic models of KRas and KRas/LKB1 null NSCLC, MRI tumor volume; assay type: in vivo, mice
Experimental: KRas^G12D/LKB1^lox/lox (KRas/LKB1^null) were generated by selective breeding of Lox-Stop-Lox KRas^G12D mice, purchased from Jackson Laboratories (Bar-Harbor, Me.), with LKB1^lox/lox mice obtained from Mouse Repository at the NCI and were inbred on a FVB background. KRas^G12D/LKB1^wt/wt (KRas/LKB1^wt) mice were generated by backcrossing Lox-Stop-Lox KRas^G12D onto a FVB background. Induction of lung tumors was performed. Briefly, six-week-old KRas/LKB1^null and KRas/LKB1^wt mice were transiently infected with 5×10^6 p.f.u. of Cre adenovirus (University of Iowa adenoviral core) via intranasal infection. At ˜6 weeks (KRas/LKB1^null) or ˜10 weeks (KRas/LKB1^wt) post-infection, mice underwent a baseline MRI scan to determine the baseline tumor burden. Mice with identified disease were randomized for daily treatment with either vehicle (PBS) or 500 mg/kg 2DG for three weeks, at which time mice received a follow-up MRI scan, sacrificed and the presence of disease confirmed by gross assessment and histology. For data generated in FIG. 2, KRas/LKB1^null and KRas/LKB1^wt mice with MRI positive tumors were treated either with 2DG (500 mg/kg) or vehicle (PBS) twice a day for two days before sacrifice and necropsy of tumor tissue. Mice received daily checks to monitor for clinical signs of disease (labored breathing, weight loss) and all procedures were under a protocol approved by the St. Joseph's Hospital and Medical Center IACUC committee.
All the scans were performed using a 7T small animal, 30-cm horizontal-bore magnet and BioSpec Advance III spectrometer (Bruker, Billerica, Mass.) with a 72 mm quadrature volume coil. Each animal was induced and maintained under isoflurane anesthesia, 3.0% and 1.5%, respectively, and delivered with 1.5 L/min of 100% oxygen. During MRI scans, the animal's respiration was continually monitored by a small animal monitoring and gating system (SA Instruments, Stoney Brook, N.Y.) via a pillow sensor positioned on top of the abdomen. Mice were placed on a heated animal bed system (Bruker, Billerica, Mass.) and the normal body temperature (36-37° C.) was maintained. For MR imaging, a Fast Low Angle Shot (FLASH) sequence (TR/TE=40 ms/2 ms; FOV=60 mm×60 mm; Average=2; matrix=256×256; Flip Angle=30°) was used to acquire initial scout images, which were used for locating the lung region for subsequent images. Then T1 weighted images were obtained with the Fast Imaging with Steady State Precession (FISP) sequence (TR/TE 5.262 ms/2.0 ms; 8 segments; FOV=30 mm×30 mm; matrix=256×256; slice thickness=1.0 mm; Flip angle, 20°; 22 averages; total acquisition time=17 min). […] Change in tumor volumes was determined by comparison of baseline tumor volume to tumor volume following three weeks of treatment.

[3] = system: H838-KDLKB1 cells; assay: Clonogenic survival of H838-LKB1 and H838-KDLKB1 cells; assay type: cell-based, human; details: 24 h; 2DG 10 mM, Tm 1.25 μg/ml, BFA 30 ng/ml
Experimental: Clonogenic survival assay were performed in 6 well dishes. Briefly, 200 of indicated cells were plated per well and allowed to attach overnight. Were indicated cells were pre-treated with 125 ng/ml of cyclohexamide (CHX) for one hour. Indicated drugs were diluted fresh into media and cells were treated for 24 h, at which time the drug containing media was removed and replaced with fresh media. After 14 days, cells were fixed in 10% Methanol/10% Acetic Acid and stained with 0.5% crystal violet. After washing in ddH2O, plates were allowed to dry and colonies of 50 cells or more were counted. The surviving fraction was calculated according to methods described by Franken et al. [Clonogenic assay of cells in vitro, NAT. PROT. 1 (5) (2006) 2315-2319].

[4] = system: H838-KDLKB1 and H838-LKB1 cells; assay: Immunoblot of ER stress markers in H838-LKB1 and H838-KDLKB1 cells; assay type: cell-based, human; details: 12 h; 2DG 10 mM, Tm 1.25 ug/ml, BFA 30 ng/ml
Experimental: Cells were washed once with ice-cold PBS and incubated on ice for 30 min with a lysis buffer containing 10 mM Tris-HCl, 150 mM NaCl, 0.1% SDS and 1% IGEPAL (Sigma) to which a protease inhibitor cocktail (Sigma) and two phosphatase cocktails I and II (Sigma) were added immediately before use. Lysates were transferred to tubes and insoluble material was pelleted by centrifugation. For immunoblotting, 50-100 μg of total protein lysates were separated by SDS-PAGE and transferred to nitrocellulose. Blots were blocked in 5% milk/Tris buffered saline/0.1% TWEEN® 20 (polyoxyethylenesorbitan monolaurate) (TBST) and primary antibodies were diluted in 5% Bovine Serum Albumin (Sigma)/TBST and incubated overnight at 4° C. Blots were developed with ECL plus (GE) and visualized on a Kodak Image station.

[5] = Chronic dosing tolerability in vivo
[6] = KRas/LKB1^null mice, data not shown

O=CC[C@@H](O)[C@H](O)[C@H](O)CO [2DG, 2-deoxy-D-glucose]
ROS levels in H838-KDLKB1, increase in intensity over H838-LKB1 [1]: 2 fold
Growth of NSCLC tumors (change in tumor volume by MRI) compared to vehicle ([2]; 500 mg/kg daily, three weeks, KRas/LKB1 wt and KRas/LKB1^null mice): reduced the growth of NSCLC tumors
Response of KRas/LKB1^null tumors compared to KRas/LKB1^wt tumors ([2]; 500 mg/kg daily, three weeks, p=0.0032): statistically greater response
Effects upon metastasis, gross assessment at necropsy [2, 6]: did not observe any effects upon metastasis
Survival of mice in longer term studies [2, 6]: no statistical impact upon survival
Clonogenic cell survival of H838-KDLKB1 cells [3]: reduced cell survival
Phosphorylated eIF2a in H838-KDLKB1 compared to H838-LKB1 cells [4]: increased levels of phosphorylated eIF2a
Tolerability of chronic dosing [5]: poorly tolerated
